Assay results taken from patent publication US20060269924A1, “Modulation of telomere-initiated cell signaling” (TRUSTEES OF BOSTON UNIVERSITY, priority 2003, published 2006).
{P} = phosphate

Experiments:
[1] = system: p95 phosphorylated at serine 343; experiment: p95 serine 343 phosphorylation after tankyrase siRNA, western blotting and densitometry; assay type: cell-based, human; details: 24 hours
Protocol: Paired cultures of human fibroblasts were treated once with tankyrase siRNA, with a non-specific siRNA (control) or were mock transfected as a second control. […] After an additional 24 hours, cells were collected and processed for western blotting using an antibody specific for p95 phosphorylated at serine 343, indicating p95 modification by activated ATM kinase. The film was then subjected to densitometry and the diluent control for each group of cells was set at 1.0 in arbitrary units (FIG. 19). As expected, in cells with normal tankyrase levels the T-oligo treated cells had twice the amount of phosphorylated p95, while the control oligo-treated or diluent-treated cells had only a 30-40% increase.

[2] = system: keratinocyte cell line (SSC12F); experiment: S-phase arrest by FACS in keratinocyte cell line; assay type: cell-based; details: 48 hours, 11mer-1 alone (10 μM per FIG. 3B)
Protocol: FIGS. 3A-3G are profiles showing the results of fluorescence activated cell sorting, for the following additions to the cells: FIG. 3A, diluent; FIG. 3B, 10 μM 11mer-1; FIG. 3C, 10 μM 11mer-1 and 1 μM 11mer-1-S; FIG. 3D, 10 μM 11mer-1 and 5 μM 11mer-1-S; FIG. 3E, 10 μM 11mer-1 and 10 μM 11mer-1-S; FIG. 3F, 20 μM 11mer-1-S; FIG. 3G, 10μM 11mer-1-S.
Forty-three percent of the cells were in the S phase, compared to 26% of the control, diluent-treated cells.

Saos-2 cells = experiment: FACS analysis of Saos-2 cells; assay type: cell-based; details: Saos-2 (telomerase negative), 40 μM, 48 hours
Protocol: FIG. 18a: FACS profiles from one representative experiment of three with the percentage and standard deviations of cells in each phase of the cell cycle was calculated from triplicate cultures of each condition. FIG. 18b: Western blots with an antibody specific for phospho-p95/Nbs1. Lanes 1, 2 and 3 contained protein from cells treated with diluent, 11mer-1 or 11mer-2, respectively. Control cells (3 hours) were irradiated with 10 Gy of IR (+), or were sham irradiated (−).
Saos-2 cells are an osteosarcoma cell line that is reportedly telomerase negative and maintain telomeres by the ALT pathway. Saos-2 cell lines were treated with either diluent or 40 μM of the indicated oligonucleotide and cells were collected after 48 hours for FACS analysis. […] The results that the effect of the T-oligo in the telomerase negative cells is identical to the response in telomerase positive malignant cell lines.

S91 mouse melanoma cells = experiment: Melanin content of S91 melanoma cells; assay type: cell-based; details: 40 μM, 6 days
Protocol: Cultures of S91 mouse melanoma cells (100,000 cells/38 cm^2) were treated with 100 μM pTpT or phosphorothioate pTpT (pTspT) (FIG. 4) or 40 μM 11mer-1 or the phosphorothioate 11mer-1 (11mer-1-S) (FIG. 5) for 6 days and were then collected, counted and assayed for melanin content.
Duplicate cultures of S91 cells (100,000 cells/39 cm^2) were either sham-irradiated or irradiated with 5 mJ/cm^2 solar-simulated light from a 1 kW xenon arc solar-simulator (XMN 1000-21, Optical Radiation, Azuza, Calif.) metered at 285±5 nm using a research radiometer (model IL1700A, International Light, Newburyport, Mass.). Two sham-irradiated plates were then supplemented with 100 μM pTspT and two irradiated cultures were similarly treated with pTspT. After one week, cells were collected, counted and analyzed for melanin content by dissolving the cell pellets in 1 N NaOH and measuring the optical density at 475 nm. […] However, this response was blocked by the addition of pTspT (FIG. 6). In addition, the constitutive pigmentation of these cells was reduced by the pTspT in the sham-irradiated cultures, similar to the data presented in FIGS. 4 and 5.

[3] = system: HT-1080 fibrosarcoma cells; experiment: BrdU incorporation assay, HT-1080 cells; assay type: cell-based, human
Protocol: FIG. 13a: Exposure to T-oligo increases SA-β-Gal activity. HT-1080 cells were treated for 4 days with diluent alone or 40 μM T-oligo or the complementary control oligo, then stained and assayed for SA-β-Gal activity. FIG. 13b: Quantitative analysis of SA-β-Gal positive cells. Cells expressing SA-β-Gal activity were counted and presented as percentage of total cells in the cultures. Averages and standard deviations were calculated from 3 representative fields from each of 3 independent experiments. FIG. 13c: Effect of T-oligo on cell proliferation. Cells were treated for 4 days as in FIG. 12 and assayed for DNA synthesis by BrdU incorporation. FIG. 13d: Quantitative analysis of BrdU incorporation. Dark black nuclei indicate BrdU incorporated into nuclear DNA. BrdU positive cells were calculated and presented as percentage of total cells in the cultures. Averages and standard deviations were calculated from 3 representative fields from each of 3 independent experiments. FIG. 13e: Effect of T-oligo on pRb phosphorylation. Cells were treated as in FIG. 13a and were then collected for protein analysis by western blot using 30 μg total protein and probed for pRb-ser780*, ser795* and ser807/811* (pRb phosphorylated at serine 780, serine 795 and serine 807/811 respectively). Lanes D, T and C contain protein samples from cells treated with diluent, T-oligo and complementary oligo respectively. β-actin was used as a loading control.
Parallel cultures were treated as described in FIG. 13a. Cells were then washed once with PBS and refed with complete medium without additional treatment for 24 hours or 48 hours. FIG. 14a: SA-β-Gal activity. […]
HT-1080 fibrosarcoma cells cultured on Permanox chamber slides were treated with diluent, 40 μM T-oligo or 40 μM complementary oligo for 4 days and DNA synthesis was assayed using 5-bromo-2′-deoxy-uridine (BrdU) Labeling and Detection Kit II (Roche Molecular Biochemicals, Indianapolis, Ind.) following the protocol supplied by the manufacturer. […] After incubation with anti-mouse-Ig-alkaline phosphatase, the color reaction was detected by light microscopy. […]

[4] = system: p53, E2F1 transcription factor; experiment: Western analysis of p53 and E2F1 in Jurkat cells; assay type: cell-based, human; details: by 24 hours after addition

pGTTAGGGTTAG (DNA, 5' {P}, backbone not given here; listed as Homo sapiens) [Oligonucleotide 11mer-1]
amount of phosphorylated p95 relative to diluent control ([1]; human fibroblasts with normal tankyrase levels): twice | level of p95 phosphorylation (densitometry, diluent control set at 1.0) ([1]; tankyrase knockdown group (tankyrase siRNA)): 1.1 arbitrary units | cells in the S phase [2]: Forty-three | S phase arrest (Saos-2 cells): causes an S phase arrest | melanogenesis (melanin content) (S91 mouse melanoma cells): stimulated melanogenesis | DNA synthesis (BrdU) after removal of oligo ([3]; HT-1080, 4 days 40 μM, then 1 and 2 days fresh medium without oligonucleotide): did not resume DNA synthesis | BrdU incorporation (BrdU positive cells) ([3]; HT-1080 cells, 40 μM, 4 days): 7±2% | level of the E2F1 transcription factor [4]: concomitant increase | p53 level (Western analysis) [4]: increase
